Reference: patent US9890147B2 (BAYER PHARMA AKTIENGESELLSCHAFT, priority 2012, dated 2018)

Columns and labels:
BRD4 (BD1) = biological target: T1, BRD4 (BD1) (Homo sapiens, UniProt O60885); test: Binding assay BRD4/acetylated peptide H4 (TR-FRET protein-protein interaction assay)
T1 construct: with relatively long constructs also being possible, preferably amino acids 44-168; made in house; host or cells: E. coli
Procedure, shortened: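 His6-BRD4 BD1 (aa 67-152, E. coli), usually 10 nM, with biotinylated tetra-acetylated H4 peptide in HEPES pH 7.5 buffer; 11 compound concentrations 0.1 nM–20 μM in duplicate, 10 min preincubation, 1 h at 22 °C then ≥3 h at 4 °C. TR-FRET 665/620 ratio; IC50 by 4-parameter fit.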

MOLM-13 cells = test: Cell proliferation assay (alamarBlue), MOLM-13; assay type: cell-based; conditions: Homo sapiens, 96 hours incubation, inhibition of cell proliferation
Experimental: In accordance with the invention, the capability of the substances to inhibit cell proliferation was determined Cell viability was determined using the alamarBlue® reagent (Invitrogen) in a Victor X3 Multilabel Reader (Perkin Elmer). The excitation wavelength was 530 nm and the emission wavelenth […].
The MOLM-13 cells (DSMZ, ACC 554) were sown at a concentration of 4000 cells/well in 100 μl growth medium (RPMI1640, 10% FCS) on 96-well microtitre plates.
After an overnight incubation at 37° C., the fluorescence values (CI values) were determined. The plates were then treated with various substance dilutions (1E-5 M, 3E-6 M, 1E-6M, 3E-7 M, 1E-7 M, 3E-8 M, 1E-8 M) and incubated at 37° C. for 72 (MV4-11-, LOX-IMVI cells), 96 (MOLM-13-, B16F10-, MDA-MB-431-, Caov-3 cells), 120 (MOLP-8-, KMS-12-PE cells) or 168 (LAPC-4 cells) hours. The fluorescence values (CO values) were then determined. For the data analysis, the CI values were subtracted from the CO values and the results were compared between cells treated with different dilutions of the substance or with buffer solution only. These were used to calculate the IC 50 values (substance concentration required for 50% inhibition of cell proliferation).

Compound | IC50 (BRD4 (BD1)) | IC50 (MOLM-13 cells)
CNC(=O)N1N=C(c2ccc(F)c(-c3c(C)noc3C)c2)c2cc(OC)c(OC)cc2CC1C (racemic) [Example 58, (±)-1-[3-(3,5-dimethylisoxazol-4-yl)-4-fluoroophenyl]-7,8-dimethoxy-N,4-dimethyl-4,5-dihydro-3H-2,3-benzodiazepine-3-carboxamide] | 250 nM | 990 nM
CNC(=O)N1N=C(c2ccc(N3CCS(=O)(=O)CC3)cc2)c2cc(Cl)c(OC(F)(F)F)cc2CC1C (racemic) [Example 210, (±)-8-chloro-1-[4-(1,1-dioxidothiomorpholin-4-yl)phenyl]-N,4-dimethyl-7-(trifluoromethoxy)-4,5-dihydro-3H-2,3-benzodiazepine-3-carboxamide] | 250 nM | 170 nM
CNC(=O)N1N=C(c2ccc(-c3ccccc3Cl)cc2)c2cc(OC)c(OC)cc2CC1C (racemic) [Example 92, (±)-1-(2′-chlorobiphenyl-4-yl)-7,8-dimethoxy-N,4-dimethyl-4,5-dihydro-3H-2,3-benzodiazepine-3-carboxamide] | 180 nM | 850 nM
CNC(=O)N1N=C(c2ccc(F)c(-c3cnn(C)c3)c2)c2cc(OC)c(OC)cc2CC1C (racemic) [Example 57, (±)-1-[4-fluoro-3-(1-methyl-1H-pyrazol-4-yl)phenyl]-7,8-dimethoxy-N,4-dimethyl-4,5-dihydro-3H-2,3-benzodiazepine-3-carboxamide] | 90 nM | 790 nM
CCc1cc(C2CC2)nn1-c1ccc(C2=NN(C(=O)NC)[C@@H](C)Cc3ccc(OC)cc32)cc1 [Example 24] | 250 nM | 1170 nM
CNC(=O)N1N=C(c2ccc(N3CCN(C)CC3)c(C#N)c2)c2cc(OC)c(OC)cc2C[C@@H]1C [Example 254, (4S)-1-[3-Cyano-4-(4-methylpiperazin-1-yl)phenyl]-7,8-dimethoxy-N,4-dimethyl-4,5-dihydro-3H-2,3-benzodiazepine-3-carboxamide] | 110 nM | 170 nM
CNC(=O)N1N=C(c2ccc(N3CCCCC3=O)cc2)c2cc(OC)c(OC)cc2CC1C (racemic) [Example 35, (±)-7,8-dimethoxy-N,4-dimethyl-1-[4-(2-oxopiperidin-1-yl)phenyl]-4,5-dihydro-3H-2,3-benzodiazepine-3-carboxamide] | 220 nM | 1470 nM
CNC(=O)N1N=C(c2ccc(Cl)cc2)c2ccc(-c3cn(C)nn3)cc2CC1C (racemic) [Example 243, (±)-1-(4-chlorophenyl)-N,4-dimethyl-7-(1-methyl-1H-1,2,3-triazol-4-yl)-4,5-dihydro-3H-2,3-benzodiazepine-3-carboxamide] | 320 nM | 340 nM
CCOc1cc2c(cc1OCC)C(c1ccc(N3CCN(C)CC3)cc1)=NN(C(=O)NC)C(C)C2 (racemic) [Example 200, (±)-7,8-Diethoxy-N,4-dimethyl-1-[4-(4-methylpiperazin-1-yl)phenyl]-4,5-dihydro-3H-2,3-benzodiazepine-3-carboxamide] | 500 nM | 180 nM
CNC(=O)N1N=C(c2ccc(N3CCCOC3=O)cc2)c2cc(OC)c(OC)cc2CC1C (racemic) [Example 38, (±)-7,8-dimethoxy-N,4-dimethyl-1-[4-(2-oxo-1,3-oxazinan-3-yl)phenyl]-4,5-dihydro-3H-2,3-benzodiazepine-3-carboxamide] | 120 nM | 730 nM
CNC(=O)N1N=C(c2ccc(N3CCN(C)CC3)cc2)c2cc(OC)c(OC(F)(F)F)cc2CC1C (racemic) [Example 219, (±)-8-methoxy-N,4-dimethyl-1-[4-(4-methylpiperazin-1-yl)phenyl]-7-(trifluoromethoxy)-4,5-dihydro-3H-2,3-benzodiazepine-3-carboxamide] | 370 nM | 570 nM
CNC(=O)N1N=C(c2ccc(-n3ccc(-c4ccc(F)cc4)n3)cc2)c2cc(OC)c(OC)cc2C[C@H]1C [Example 150.2, (4R)-1-{4-[3-(4-fluorophenyl)-1H-pyrazol-1-yl]phenyl}-7,8-dimethoxy-N,4-dimethyl-4,5-dihydro-3H-2,3-benzodiazepine-3-carboxamide] | 12300 nM | 9870 nM
CNC(=O)N1N=C(c2ccc(-c3ccc(OC(F)(F)F)cc3)cc2)c2cc(OC)c(OC)cc2CC1C (racemic) [Example 95, (±)-7,8-dimethoxy-N,4-dimethyl-1-[4′-(trifluoromethoxy)biphenyl-4-yl]-4,5-dihydro-3H-2,3-benzodiazepine-3-carboxamide] | 630 nM | 2760 nM
CNC(=O)N1N=C(c2ccc(-c3ccccc3F)cc2)c2cc(OC)c(OC)cc2CC1C (racemic) [Example 93, (±)-1-(2′-fluorobiphenyl-4-yl)-7,8-dimethoxy-N,4-dimethyl-4,5-dihydro-3H-2,3-benzodiazepine-3-carboxamide] | 120 nM | 460 nM
CNC(=O)N1N=C(c2ccc(-c3cccnc3C)cc2)c2cc(OC)c(OC)cc2CC1C (racemic) [Example 124, (±)-7,8-dimethoxy-N,4-dimethyl-1-[4-(2-methylpyridin-3-yl)phenyl]-4,5-dihydro-3H-2,3-benzodiazepine-3-carboxamide] | 90 nM | 1070 nM
CNC(=O)N1N=C(c2cccc(-c3c(C)noc3C)c2)c2cc(OC)c(OC)cc2CC1C (racemic) [Example 31, (±)-1-[3-(3,5-Dimethylisoxazol-4-yl)phenyl]-7,8-dimethoxy-N,4-dimethyl-4,5-dihydro-3H-2,3-benzodiazepine-3-carboxamide] | 180 nM | 270 nM
CNC(=O)N1N=C(c2ccc(-c3ccccc3CO)cc2)c2cc(OC)c(OC)cc2CC1C (racemic) [Example 112, (±)-1-[2′-(hydroxymethyl)biphenyl-4-yl]-7,8-dimethoxy-N,4-dimethyl-4,5-dihydro-3H-2,3-benzodiazepine-3-carboxamide] | 80 nM | 630 nM

Further molecules by falling IC50 (BRD4 (BD1)), results first:

IC50 (BRD4 (BD1)) | IC50 (MOLM-13 cells) | Compound
80 nM | 810 nM | CNC(=O)N1N=C(c2ccc(-c3cncnc3)cc2)c2cc(OC)c(OC)cc2CC1C (racemic) [Example 111, (±)-7,8-dimethoxy-N,4-dimethyl-1-[4-(pyrimidin-5-yl)phenyl]-4,5-dihydro-3H-2,3-benzodiazepine-3-carboxamide]
60 nM | 1560 nM | CNC(=O)N1N=C(c2ccc(-c3ccc(S(C)(=O)=O)cc3)cc2)c2cc(OC)c(OC)cc2CC1C (racemic) [Example 108, (±)-7,8-dimethoxy-N,4-dimethyl-1-[4′-(methylsulphonyl)biphenyl-4-yl]-4,5-dihydro-3H-2,3-benzodiazepine-3-carboxamide]
40 nM | 370 nM | CNC(=O)N1N=C(c2ccc(-c3ccc(C(=O)N4CCCC4)cc3)cc2)c2cc(OC)c(OC)cc2CC1C (racemic) [Example 78, (±)-7,8-dimethoxy-N,4-dimethyl-1-[4′-(pyrrolidin-1-ylcarbonyl)biphenyl-4-yl]-4,5-dihydro-3H-2,3-benzodiazepine-3-carboxamide]
40 nM | 380 nM | CNC(=O)N1N=C(c2ccc(-c3ccc(CO)cc3)cc2)c2cc(OC)c(OC)cc2CC1C (racemic) [Example 94, (±)-1-[4′-(hydroxymethyl)biphenyl-4-yl]-7,8-dimethoxy-N,4-dimethyl-4,5-dihydro-3H-2,3-benzodiazepine-3-carboxamide]
40 nM | 60 nM | CNC(=O)N1N=C(c2ccc(N3CCN(C)CC3)c(Br)c2)c2cc(OC)c(OC)cc2C[C@@H]1C [Example 253, (4S)-1-[3-Bromo-4-(4-methylpiperazin-1-yl)phenyl]-7,8-dimethoxy-N,4-dimethyl-4,5-dihydro-3H-2,3-benzodiazepine-3-carboxamide]
40 nM | 180 nM | CNC(=O)N1N=C(c2ccc(N3CCN(C)C(=O)C3)cc2)c2cc(OC)c(OC)cc2C[C@@H]1C [Example 138.1, (4S)-7,8-dimethoxy-N,4-dimethyl-1-[4-(4-methyl-3-oxopiperazin-1-yl)phenyl]-4,5-dihydro-3H-2,3-benzodiazepine-3-carboxamide]
30 nM | 260 nM | CNC(=O)N1N=C(c2ccc(-c3cnccc3OC)cc2)c2cc(OC)c(OC)cc2CC1C (racemic) [Example 104, (±)-7,8-dimethoxy-1-[4-(4-methoxypyridin-3-yl)phenyl]-N,4-dimethyl-4,5-dihydro-3H-2,3-benzodiazepine-3-carboxamide]
20 nM | 230 nM | CNC(=O)N1N=C(c2ccc(N3CCN(C(C)=O)CC3)cc2)c2cc(OC)c(OC)cc2C[C@@H]1C [Example 132.2, (4S)-1-[4-(4-acetylpiperazin-1-yl)phenyl]-7,8-dimethoxy-N,4-dimethyl-4,5-dihydro-3H-2,3-benzodiazepine-3-carboxamide]
20 nM | 230 nM | CNC(=O)N1N=C(c2ccc(-c3ccc(O)nc3)cc2)c2cc(OC)c(OC)cc2C[C@@H]1C [Example 49.1, (4S)-1-[4-(6-hydroxypyridin-3-yl)phenyl]-7,8-dimethoxy-N,4-dimethyl-4,5-dihydro-3H-2,3-benzodiazepine-3-carboxamide]
